In brackets after ≈: the same amount, converted by molar mass. Activity calls are given as the source filed them. The rule behind the calls is not given here.
Tested on: Acinetobacter baumannii
Experiment: Antibacterial activity against Acinetobacter baumannii ATCC 19606 at 0.1 M by disk diffusion assay
Type: functional, ATCC 19606 = CIP 70.34 = JCM 6841
Conditions: not given

Structure (SMILES)	inhibition zone (IZ)
O=C(O)c1ccc(-n2cc(/C=N/Nc3ccc(F)cc3)c(-c3ccccc3)n2)cc1	>85 mm

Tested on: Acinetobacter baumannii
Experiment: Antibacterial activity against Acinetobacter baumannii ATCC 19606 by disk diffusion assay
Type: functional, ATCC 19606 = CIP 70.34 = JCM 6841
Conditions: not given

Structure (SMILES)	inhibition zone (IZ)
O=C(O)c1ccc(-n2cc(/C=N/Nc3ccc([N+](=O)[O-])cc3)c(-c3ccccc3)n2)cc1	22 mm
O=C(O)c1cn(C2CC2)c2cc(N3CCNCC3)c(F)cc2c1=O [CIPROFLOXACIN]	32 - 37 mm
O=C(O)c1ccc(-n2cc(/C=N/Nc3ccccc3)c(-c3ccccc3)n2)cc1	28 mm
O=C(O)c1ccc(-n2cc(/C=N/Nc3ccc(Cl)cc3)c(-c3ccccc3)n2)cc1	54 mm
O=C(O)c1ccc(-n2cc(/C=N/Nc3ccccc3F)c(-c3ccccc3)n2)cc1	34 mm
O=C(N[C@H](CO)[C@H](O)c1ccc([N+](=O)[O-])cc1)C(Cl)Cl [CHLORAMPHENICOL]	18 - 22 mm
O=C(O)c1ccc(-n2cc(/C=N/Nc3ccc(Br)cc3)c(-c3ccccc3)n2)cc1	42 mm

Same assay, conditions: ATCC 19606 = CIP 70.34 = JCM 6841

Structure (SMILES)	inhibition zone (IZ)
O=C(O)c1ccc(-n2cc(/C=N/Nc3ccc(Cl)cc3Cl)c(-c3ccccc3)n2)cc1	inactive
O=C(O)c1ccc(N/N=C/c2cn(-c3ccc(C(=O)O)cc3)nc2-c2ccccc2)cc1	inactive
CN1CCN(/N=C/c2cn(-c3ccc(C(=O)O)cc3)nc2-c2ccccc2)CC1	inactive
N/N=C/c1cn(-c2ccc(C(=O)O)cc2)nc1-c1ccccc1	inactive

Tested on: Bacillus subtilis
Experiment: Antibacterial activity against Bacillus subtilis by disk diffusion assay
Type: functional
Conditions: not given

Structure (SMILES)	inhibition zone (IZ)
O=C(O)c1ccc(-n2cc(CNc3ccc(CCO)cc3)c(-c3ccccc3)n2)cc1	10 mm
O=C(O)c1ccc(-n2cc(/C=N/NC(=O)c3ccccc3)c(-c3ccccc3)n2)cc1	8 mm
Cc1cc(NCc2cn(-c3ccc(C(=O)O)cc3)nc2-c2ccccc2)ccc1F	16 mm
O=C(O)c1ccc(-n2cc(/C=N/Nc3ccc([N+](=O)[O-])cc3)c(-c3ccccc3)n2)cc1	inactive
O=C(O)c1cn(C2CC2)c2cc(N3CCNCC3)c(F)cc2c1=O [CIPROFLOXACIN]	44 mm
O=C(O)c1ccc(-n2cc(/C=N/NC(=O)c3ccc(O)cc3)c(-c3ccccc3)n2)cc1	inactive
Cc1cc(NCc2cn(-c3ccc(C(=O)O)cc3)nc2-c2ccccc2)ccc1Br	17 mm
O=C(O)c1ccc(-n2cc(/C=N/Nc3ccc(Cl)cc3Cl)c(-c3ccccc3)n2)cc1	11 mm
NC(=S)N/N=C/c1cn(-c2ccc(C(=O)O)cc2)nc1-c1ccccc1	inactive
O=C(O)c1ccc(-n2cc(CNc3ccc(F)c([N+](=O)[O-])c3)c(-c3ccccc3)n2)cc1	12 mm
O=C(O)c1ccc(N/N=C/c2cn(-c3ccc(C(=O)O)cc3)nc2-c2ccccc2)cc1	inactive
O=C(O)c1ccc(-n2cc(CNc3ccc(Cl)c(Cl)c3)c(-c3ccccc3)n2)cc1	11 mm
O=C(O)c1ccc(-n2cc(/C=N/Nc3ccccc3)c(-c3ccccc3)n2)cc1	11 mm
CN1CCN(/N=C/c2cn(-c3ccc(C(=O)O)cc3)nc2-c2ccccc2)CC1	inactive
N/N=C/c1cn(-c2ccc(C(=O)O)cc2)nc1-c1ccccc1	7 mm
O=C(O)c1ccc(-n2cc(/C=N/Nc3ccc(Cl)cc3)c(-c3ccccc3)n2)cc1	13 mm
O=C(O)c1ccc(-n2cc(/C=N/Nc3ccccc3F)c(-c3ccccc3)n2)cc1	17 mm
O=C(N[C@H](CO)[C@H](O)c1ccc([N+](=O)[O-])cc1)C(Cl)Cl [CHLORAMPHENICOL]	36 mm
O=C(O)c1ccc(-n2cc(/C=N/Nc3ccc(Br)cc3)c(-c3ccccc3)n2)cc1	10 mm
O=C(O)c1ccc(-n2cc(/C=N/Nc3ccc(F)cc3)c(-c3ccccc3)n2)cc1	18 mm

Tested on: Staphylococcus aureus
Experiment: Antibacterial activity against methicillin-resistant Staphylococcus aureus ATCC 43300 by disk diffusion assay
Type: functional
Conditions: not given

Structure (SMILES)	inhibition zone (IZ)
O=C(O)c1ccc(-n2cc(CNc3ccc(CCO)cc3)c(-c3ccccc3)n2)cc1	9 mm
O=C(O)c1ccc(-n2cc(/C=N/NC(=O)c3ccccc3)c(-c3ccccc3)n2)cc1	8 mm
Cc1cc(NCc2cn(-c3ccc(C(=O)O)cc3)nc2-c2ccccc2)ccc1F	15 mm
O=C(O)c1ccc(-n2cc(/C=N/Nc3ccc([N+](=O)[O-])cc3)c(-c3ccccc3)n2)cc1	inactive
O=C(O)c1cn(C2CC2)c2cc(N3CCNCC3)c(F)cc2c1=O [CIPROFLOXACIN]	36 mm
O=C(O)c1ccc(-n2cc(/C=N/NC(=O)c3ccc(O)cc3)c(-c3ccccc3)n2)cc1	inactive
Cc1cc(NCc2cn(-c3ccc(C(=O)O)cc3)nc2-c2ccccc2)ccc1Br	15 mm
O=C(O)c1ccc(-n2cc(/C=N/Nc3ccc(Cl)cc3Cl)c(-c3ccccc3)n2)cc1	10 mm
NC(=S)N/N=C/c1cn(-c2ccc(C(=O)O)cc2)nc1-c1ccccc1	inactive
O=C(O)c1ccc(-n2cc(CNc3ccc(F)c([N+](=O)[O-])c3)c(-c3ccccc3)n2)cc1	14 mm
O=C(O)c1ccc(N/N=C/c2cn(-c3ccc(C(=O)O)cc3)nc2-c2ccccc2)cc1	inactive
O=C(O)c1ccc(-n2cc(CNc3ccc(Cl)c(Cl)c3)c(-c3ccccc3)n2)cc1	11 mm
O=C(O)c1ccc(-n2cc(/C=N/Nc3ccccc3)c(-c3ccccc3)n2)cc1	10 mm
CN1CCN(/N=C/c2cn(-c3ccc(C(=O)O)cc3)nc2-c2ccccc2)CC1	inactive
N/N=C/c1cn(-c2ccc(C(=O)O)cc2)nc1-c1ccccc1	7 mm
O=C(O)c1ccc(-n2cc(/C=N/Nc3ccc(Cl)cc3)c(-c3ccccc3)n2)cc1	16 mm
O=C(O)c1ccc(-n2cc(/C=N/Nc3ccccc3F)c(-c3ccccc3)n2)cc1	13 mm
O=C(N[C@H](CO)[C@H](O)c1ccc([N+](=O)[O-])cc1)C(Cl)Cl [CHLORAMPHENICOL]	25 - 36 mm
O=C(O)c1ccc(-n2cc(/C=N/Nc3ccc(Br)cc3)c(-c3ccccc3)n2)cc1	10 mm
O=C(O)c1ccc(-n2cc(/C=N/Nc3ccc(F)cc3)c(-c3ccccc3)n2)cc1	16 mm

Tested on: Acinetobacter baumannii
Experiment: Antibacterial activity against Acinetobacter baumannii ATCC 19606 at 0.01 M by disk diffusion assay
Type: functional, ATCC 19606 = CIP 70.34 = JCM 6841
Conditions: not given

Structure (SMILES)	inhibition zone (IZ)
O=C(O)c1ccc(-n2cc(/C=N/Nc3ccc(F)cc3)c(-c3ccccc3)n2)cc1	32 mm

Tested on: Escherichia coli
Experiment: Antibacterial activity against Escherichia coli by disk diffusion assay
Type: functional
Conditions: not given

Structure (SMILES)	inhibition zone (IZ)
O=C(O)c1ccc(-n2cc(/C=N/Nc3ccc([N+](=O)[O-])cc3)c(-c3ccccc3)n2)cc1	inactive
O=C(O)c1cn(C2CC2)c2cc(N3CCNCC3)c(F)cc2c1=O [CIPROFLOXACIN]	39 mm
O=C(O)c1ccc(-n2cc(/C=N/Nc3ccc(Cl)cc3Cl)c(-c3ccccc3)n2)cc1	inactive
O=C(O)c1ccc(N/N=C/c2cn(-c3ccc(C(=O)O)cc3)nc2-c2ccccc2)cc1	inactive
O=C(O)c1ccc(-n2cc(/C=N/Nc3ccccc3)c(-c3ccccc3)n2)cc1	inactive
CN1CCN(/N=C/c2cn(-c3ccc(C(=O)O)cc3)nc2-c2ccccc2)CC1	inactive
N/N=C/c1cn(-c2ccc(C(=O)O)cc2)nc1-c1ccccc1	inactive
O=C(O)c1ccc(-n2cc(/C=N/Nc3ccc(Cl)cc3)c(-c3ccccc3)n2)cc1	8 mm
O=C(O)c1ccc(-n2cc(/C=N/Nc3ccccc3F)c(-c3ccccc3)n2)cc1	inactive
O=C(N[C@H](CO)[C@H](O)c1ccc([N+](=O)[O-])cc1)C(Cl)Cl [CHLORAMPHENICOL]	39 mm
O=C(O)c1ccc(-n2cc(/C=N/Nc3ccc(Br)cc3)c(-c3ccccc3)n2)cc1	inactive
O=C(O)c1ccc(-n2cc(/C=N/Nc3ccc(F)cc3)c(-c3ccccc3)n2)cc1	8 mm

Tested on: Staphylococcus aureus
Experiment: Antibacterial activity against methicillin-resistant Staphylococcus aureus ATCC 43300
Type: functional
Conditions: not given

Structure (SMILES)	MIC
Cc1cc(NCc2cn(-c3ccc(C(=O)O)cc3)nc2-c2ccccc2)ccc1Br	16 µg/mL (≈ 34.6 µM)
O=C(O)c1ccc(-n2cc(CNc3ccc(Cl)c(Cl)c3)c(-c3ccccc3)n2)cc1	16 µg/mL (≈ 36.5 µM)

Tested on: Acinetobacter baumannii
Experiment: Antibacterial activity against Acinetobacter baumannii ATCC 19606
Type: functional
Conditions: ATCC 19606 = CIP 70.34 = JCM 6841

Structure (SMILES)	MIC
O=C(O)c1cn(C2CC2)c2cc(N3CCNCC3)c(F)cc2c1=O [CIPROFLOXACIN]	1.56 µg/mL (≈ 4.71 µM)
O=C(O)c1ccc(-n2cc(/C=N/Nc3ccc(Cl)cc3)c(-c3ccccc3)n2)cc1	4 µg/mL (≈ 9.6 µM)
O=C(N[C@H](CO)[C@H](O)c1ccc([N+](=O)[O-])cc1)C(Cl)Cl [CHLORAMPHENICOL]	16 µg/mL (≈ 49.5 µM)
O=C(O)c1ccc(-n2cc(/C=N/Nc3ccc(Br)cc3)c(-c3ccccc3)n2)cc1	8 µg/mL (≈ 17.3 µM)
O=C(O)c1ccc(-n2cc(/C=N/Nc3ccc(F)cc3)c(-c3ccccc3)n2)cc1	8 µg/mL (≈ 20 µM)

Tested on: not listed separately
Experiment: Cytotoxicity against HEK293 cells
Type: cell-based
Conditions: human

Structure (SMILES)	CC50
Cc1cc(NCc2cn(-c3ccc(C(=O)O)cc3)nc2-c2ccccc2)ccc1Br	17.9 µg/mL (≈ 38.7 µM)
O=C(O)c1ccc(-n2cc(CNc3ccc(Cl)c(Cl)c3)c(-c3ccccc3)n2)cc1	18 µg/mL (≈ 41.1 µM)
O=C(O)c1ccc(-n2cc(/C=N/Nc3ccc(Cl)cc3)c(-c3ccccc3)n2)cc1	> 32 µg/mL
O=C(O)c1ccc(-n2cc(/C=N/Nc3ccc(Br)cc3)c(-c3ccccc3)n2)cc1	> 32 µg/mL
O=C(O)c1ccc(-n2cc(/C=N/Nc3ccc(F)cc3)c(-c3ccccc3)n2)cc1	> 32 µg/mL

Tested on: Acinetobacter baumannii
Experiment: Potency index, ratio of chloramphenicol MIC to compound MIC for Acinetobacter baumannii ATCC 19606
Type: functional, ATCC 19606 = CIP 70.34 = JCM 6841
Conditions: not given

Structure (SMILES)	Ratio
O=C(O)c1ccc(-n2cc(/C=N/Nc3ccc(Cl)cc3)c(-c3ccccc3)n2)cc1	4
